Test results from patent US6043261A, “Pyrrolodino imidines useful as nitric oxide synthase inhibitors” (G. D. Searle & Co., priority 1998, dated 2000).
Counter-ions that a name gives are not always drawn. Like-named read-outs stand apart in the source and are kept apart here.

What was measured:
[1] = molecular target: T1, human inducible NOS (hiNOS) (Homo sapiens, UniProt P35228); test: Citrulline Assay for Nitric Oxide Synthase, hiNOS; type: biochemical; settings: recombinant human inducible NOS, 37° C., 15 minutes
T1 construct: made in house; host or cells: insect cells, baculovirus vector
Protocol: (§1) Citrulline Assay for Nitric Oxide Synthase
(§2) Nitric oxide synthase activity was measured by monitoring the conversion of L-[2,3-3H]-arginine to L-[2,3-3H]-citrulline (1,2). The cDNA for human inducible NOS (hiNOS) was isolated from a lcDNA library made from RNA extracted from a colon sample from a patient with ulcerative colitis; human endothelial constitutive NOS (hecNOS) was isolated from a lcDNA library made from RNA extracted from human umbilical vein endothelial cells (HUVEC); and human neuronal constitutive NOS (hncNOS) was isolated from a lcDNA library made from RNA extracted from human cerebellum from a cadaver. The recombinant enzymes were expressed in insect cells using a baculovirus vector. Enzyme activity was isolated from cell extracts and partially purified by DEAE-Sepharose chromatography (2). […] For constitutive NOS, calmodulin was included at a final concentration of 40-100 nM. Following incubation at 37° C. for 15 minutes, the reaction was terminated by addition of 300 μL cold buffer containing 10 mM EGTA, 100 mM HEPES (pH5.5) and 1.0 mM L-citrulline. The [3H]-citrulline was separated by chromatography on Dowex 50W X-8 cation exchange resin and radioactivity quantified with a liquid scintillation counter.

[2] = molecular target: T2, human endothelial constitutive NOS (hecNOS) (Homo sapiens, UniProt P29474); test: Citrulline Assay for Nitric Oxide Synthase, hecNOS; type: biochemical; settings: recombinant human endothelial constitutive NOS, 37° C., 15 minutes, calmodulin 40-100 nM
T2 construct: made in house; host or cells: insect cells, baculovirus vector
Protocol: as §1, §2

[3] = molecular target: T3, human neuronal constitutive NOS (hncNOS) (Homo sapiens, UniProt P29475); test: biochemical; settings: recombinant human neuronal constitutive NOS, 37° C., 15 minutes, calmodulin 40-100 nM
T3 construct: made in house; host or cells: insect cells, baculovirus vector
Protocol: as §1, §2

RAW cell miNOS = molecular target: T4, RAW cell miNOS (Mus musculus, UniProt P29477); test: Raw Cell Nitrite Assay; type: cell-based; settings: RAW 264.7 cells, LPS-induced, L-arginine 30 μM, nitrite production 1 h at 37° C.
T4 construct: in the presence of LPS to induce NOS; endogenous in cells; host or cells: RAW 264.7 cells, LPS-induced
Protocol: RAW 264.7 cells are plated to confluency on a 96-well tissue culture plate grown overnight (17 h) in the presence of LPS to induce NOS. […] The media is removed from each well and the cells are washed twice with Krebs-Ringers-Hepes (25 mM, pH 7.4) with 2 mg/ml glucose. The cells are then placed on ice and incubated with 50 μL of buffer containing L-arginine (30 μM) ± inhibitors for 1 h. The assay is initiated by warming the plate to 37° C. in a water bath for 1 h. […] To terminate the cellular assay, the plate of cells is placed on ice and the nitrite-containing buffer removed and analyzed for nitrite using a previously published fluorescent determination for nitrite. All values are the average of triplicate wells and are compared to a background-subtracted induced set of cells (100% value).

Plasma Nitrites/Nitrates = test: In Vivo Assay: plasma nitrites/nitrates, Endotoxin in Rat Model; parameters: species or system Rats; settings: 10 mg/kg p.o., 1 hour prior to LPS 10 mg/kg i.p., plasma nitrites 5 hours post-treatment
Protocol: In Vivo Assay Rats were treated with an intraperitoneal injection of 10 mg/kg of endotoxin (LPS) with or without oral administration of the nitric oxide synthase inhibitors administered 1 hour prior to LPS. Plasma nitrites were measured 5 hours post-treatment.

SMILES	IC50 [1] [µM]	IC50 [2] [µM]	IC50 ([3]; read-out: IC50 hncNOS) [µM]	IC50 (RAW cell miNOS; read-out: IC50 RAW cell miNOS) [µM]	% Inhibition of Plasma Nitrites/Nitrates (Plasma Nitrites/Nitrates) [%]	IC50 ([3]; IC50 hncNOS) [µM]	IC50 (RAW cell miNOS; IC50 RAW cell miNOS) [µM]
N=C1CCCC(CC2CCCCC2)N1 (stereo not shown) [Example 95, 6-(cyclohexylmethyl)piperidin-2-imine, Monohydrochloride]	5.9	375	28	–	–	–	–
N=C1CCCCC(CC2CCCCC2)N1 (stereo not shown) [Example 9, 7-(cyclohexylmethyl)hexahydro-1H-azepin-2-imine, Monohydrochloride]	9.7	575	74	> 100	–	–	–
N=C1CCCCC(CC2CC(c3ccccc3)=NO2)N1 (stereo not shown) [Example 191, 7-[(4,5-dihydro-3-phenylisoxazolyl-5-yl)methyl]hexahydro-1H-azepine-2-imine, Monotrifluoroacetic Acid Salt]	–	–	–	45	–	–	–
N=C1CCCCC(CCCc2ccccc2)N1 (stereo not shown) [Example 37, Hexahydro-7-(3-phenylpropyl)-1H-azepin-2-imine, Monohydrochloride]	19	836	118	80	–	–	–
N=C1CCCCC(C/C=C/c2ccccc2)N1 (stereo not shown) [Example 34, Hexahydro-7-(3-phenyl-2-propenyl)-1H-azepin-2-imine, Monohydrochloride]	8.1	183	24	–	–	–	–
N=C1CCCCC(Cc2ccccc2)N1 (single isomer, unassigned; (+)) [Example 14, (+)-hexahydro-7-(phenylmethyl)-1H-azepin-2-imine, Monohydrochloride]	62	651	30	170	–	–	–
NC1=NC(Cc2ccccc2)CCC1 (stereo not shown) [Example 94, 6-(phenylmethyl)piperidin-2-imine, Monohydrochloride]	–	–	–	–	–	0.71	7.9

Continued by falling IC50 ([3]; read-out: IC50 hncNOS), values first:

IC50 [1] [µM]	IC50 [2] [µM]	IC50 ([3]; read-out: IC50 hncNOS) [µM]	IC50 (RAW cell miNOS; read-out: IC50 RAW cell miNOS) [µM]	SMILES	% Inhibition of Plasma Nitrites/Nitrates (Plasma Nitrites/Nitrates) [%]	IC50 ([3]; IC50 hncNOS) [µM]	IC50 (RAW cell miNOS; IC50 RAW cell miNOS) [µM]
6.2	792	15	66	Cl.N=C1CCCCC(Cc2ccccc2)N1 (stereo not shown) [Example 5, Hexahydro-7-(phenylmethyl)-1H-azepin-2-imine, Monohydrochloride]	37	–	–
3.6	599	14	1.8	N=C1CCCCC(Cc2ccccc2)N1 (single isomer, unassigned; (-)) [Example 16, (-)-hexahydro-7-(phenylmethyl)-1H-azepin-2-imine, Monohydrochloride]	–	–	–
–	–	8.4	28	N=C1CCCCC(CC2CO2)N1 (stereo not shown) [Example 21, Hexahydro-7-[(oxiran-2-yl)methyl]-1H-azepin-2-imine, Monohydrochloride]	–	–	–
3	458	8.3	5.4	C[C@@H]1CC(=N)N[C@H]1Cc1ccccc1 (relative stereo) [Example 64, (±) (trans) 4-methyl-5-(phenylmethyl)pyrrolidin-2-imine, Monohydrochloride]	35	–	–
